According to US7687609B2, “Galectin-glycosaminoglycan complex and method for controlling galectin activity” (National Institute of Advanced Industrial Science and …, priority 2006, dated 2010):
“Also recorded” adds a separate entry of the source.

How the values were obtained:
Format in all cases: binding
[1] = tested on: tested galectin molecules (galectin-1, 3, 8N, 8C, 9N and 9C); assay: FAC affinity test, statements on the whole panel of tested galectins; conditions: Table 3, whole galectin panel
Excerpt: Using FAC, the present inventors have conducted a comprehensive analysis of the interactions between various galectin molecules (galectin-1, 3, 8N, 8C, 9N and 9C; N and C respectively represent N-terminal side carbohydrate-recognition domain and C-terminal side carbohydrate-recognition domain)-immobilized columns and various fluorescence-labeled glycosaminoglycan molecules. As a result, novel affinity was found by the combination of specific galectin molecules and glycosaminoglycan molecules to thereby accomplish the present invention.
(§1) A high performance liquid chromatography (HPLC) system was equipped with a galectin molecule-immobilized column, and the test was carried out by the method described in Nakamura S, Yagi F, Totani K, Ito γ and Hirabayashi J in FEBS J., 272, 2784-2799 (2005).
(§2) As the negative control sample, pyridyl-aminated N-acetylglucosamine (PA-GlcNAc, manufactured by Takara Bio, pyridyl-aminated glycosaminoglycan-oligosaccharide sample control) or pyridyl-aminated pullulan (prepared by carrying out pyridylamination of standard pullulan manufactured by Shodex, pyridyl-aminated glycosaminoglycan polysaccharide sample control) was used, and a V−V0 value was calculated from their eluate volume (V0 value) measured by fluorescence detection and the eluate volume (V value) of the sample, namely pyridyl-aminated glycosaminoglycan carbohydrate, and this was used as the index of interaction strength (Protein, Nucleic Acid and Enzyme, 48(8), 1206-1212 (2003)).
(§3) In this connection, when the calculated value of the V−V0 value was less than 5 μl, it was regarded as less than the interaction detection limit in this example.

Galectin-9N = target: T1, Galectin-9N (Homo sapiens, UniProt O00182); assay: FAC affinity test on galectin-immobilized column; conditions: for V − V0 Value: pyridyl-aminated carbohydrate, galectin-9N immobilized 3.6 mg/ml, less than 5 μl = below interaction detection limit; for binding to galectin-9N (in words): text statement on the FAC results
T1 construct: N and C respectively represent N-terminal side carbohydrate-recognition domain and C-terminal side carbohydrate-recognition domain; made in house
Method: (§4) Various galectin molecules-immobilized columns were prepared by the method described by Nakamura S, Yagi F, Totani K, Ito γ and Hirabayashi J in FEBS J., 272, 2784-2799 (2005), using NHS Sepharose (manufactured by Amersham Bioscience) as the carrier for immobilizing galectin molecules and in accordance with the instructions attached thereto (put in parentheses is immobilization concentration, mg galectin/ml carrier).
(§5) Each galectin molecule was immobilized onto the carrier at the following concentration; galectin-1 (0.8 mg/ml), galectin-3 (0.5 mg/ml), galectin-8N (3.6 mg/ml), galectin-8C (4.0 mg/ml), galectin-9N (3.6 mg/ml), galectin-9C (3.0 mg/ml). The carrier on which each galectin was immobilized was charged into a stainless steel miniature column (2 mm in inner diameter, 10 mm in length; manufactured by Shimadzu Corp.).
as §1, §2
(§6) V−V0 values of pyridyl-aminated glycosaminoglycans (HA, CH, DN, NAH, CSA, CSB, CSC, CSD, CSE, KS-I and KS-II) were calculated based on PA-GlcNAc, and V−V0 values of pyridyl-aminated glycosaminoglycan-oligosaccharides (G2K1, G1L1, G4L4, L2L2, L2L4, L4L4, SL2L4 and CH3 to CH12) based on pyridyl-aminated pullulan, respectively.
as §3

Galectin-8C = target: T2, Galectin-8C (Homo sapiens, UniProt O00214); assay: FAC affinity test on galectin-immobilized column; conditions: pyridyl-aminated carbohydrate; galectin-8C immobilized 4.0 mg/ml; less than 5 μl = below interaction detection limit
T2 construct: N and C respectively represent N-terminal side carbohydrate-recognition domain and C-terminal side carbohydrate-recognition domain; made in house
T2 sequence (O00214 187-317 limits assumed): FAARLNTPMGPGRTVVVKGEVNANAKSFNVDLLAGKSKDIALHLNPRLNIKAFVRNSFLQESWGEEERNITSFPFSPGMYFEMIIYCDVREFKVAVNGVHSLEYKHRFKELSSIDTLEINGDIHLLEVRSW
Method: as §4, §5, §1, §2, §6, §3

Galectin-1 = target: T3, Galectin-1 (Homo sapiens, UniProt P09382); assay: FAC affinity test on galectin-immobilized column; conditions: for V − V0 Value: pyridyl-aminated carbohydrate, galectin-1 immobilized 0.8 mg/ml, less than 5 μl = below interaction detection limit; for binding to galectin-1 (in words): text statement on the FAC results
T3 construct: made in house
Method: as §4, §5, §1, §2, §6, §3

Galectin-3 = target: T4, Galectin-3 (Homo sapiens, UniProt P17931); assay: FAC affinity test on galectin-immobilized column; conditions: for V − V0 Value: pyridyl-aminated carbohydrate, galectin-3 immobilized 0.5 mg/ml, less than 5 μl = below interaction detection limit; for binding to galectin-3 (in words): text statement on the FAC results
T4 construct: made in house
Method: as §4, §5, §1, §2, §6, §3

Galectin-8N = target: T5, Galectin-8N (Homo sapiens, UniProt O00214); assay: FAC affinity test on galectin-immobilized column; conditions: for V − V0 Value: pyridyl-aminated carbohydrate, galectin-8N immobilized 3.6 mg/ml, less than 5 μl = below interaction detection limit; for binding to galectin-8N (in words): text statement on the FAC results
T5 construct: N and C respectively represent N-terminal side carbohydrate-recognition domain and C-terminal side carbohydrate-recognition domain; made in house
T5 sequence (O00214 19-152 limits assumed): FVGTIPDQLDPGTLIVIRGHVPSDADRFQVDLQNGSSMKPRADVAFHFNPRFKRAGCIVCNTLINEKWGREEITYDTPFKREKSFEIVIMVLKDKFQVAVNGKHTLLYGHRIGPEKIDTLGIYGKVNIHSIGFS
Method: as §4, §5, §1, §2, §6, §3

Galectin-9C = target: T6, Galectin-9C (Homo sapiens, UniProt O00182); assay: FAC affinity test on galectin-immobilized column; conditions: for V − V0 Value: pyridyl-aminated carbohydrate, galectin-9C immobilized 3.0 mg/ml, less than 5 μl = below interaction detection limit; for binding to galectin-9C (in words): text statement on the FAC results
T6 construct: N and C respectively represent N-terminal side carbohydrate-recognition domain and C-terminal side carbohydrate-recognition domain; made in house
Method: as §4, §5, §1, §2, §6, §3

T1 sequence (O00182 17-148 limits assumed): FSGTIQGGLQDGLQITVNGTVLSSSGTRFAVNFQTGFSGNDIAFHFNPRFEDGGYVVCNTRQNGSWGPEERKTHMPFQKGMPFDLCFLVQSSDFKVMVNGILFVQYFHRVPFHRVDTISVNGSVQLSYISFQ
T3 sequence (P09382 whole entry): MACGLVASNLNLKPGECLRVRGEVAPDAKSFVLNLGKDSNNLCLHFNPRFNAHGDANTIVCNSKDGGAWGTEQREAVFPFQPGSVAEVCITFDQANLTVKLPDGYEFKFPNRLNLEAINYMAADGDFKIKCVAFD
T4 sequence (P17931 whole entry): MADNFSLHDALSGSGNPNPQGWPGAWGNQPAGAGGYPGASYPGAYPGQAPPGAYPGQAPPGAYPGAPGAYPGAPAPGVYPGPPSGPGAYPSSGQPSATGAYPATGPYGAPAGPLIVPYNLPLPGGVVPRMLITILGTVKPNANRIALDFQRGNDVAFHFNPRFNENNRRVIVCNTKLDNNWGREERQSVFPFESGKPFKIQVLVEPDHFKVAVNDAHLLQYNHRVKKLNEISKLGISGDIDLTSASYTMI
T6 sequence (O00182 227-355 limits assumed): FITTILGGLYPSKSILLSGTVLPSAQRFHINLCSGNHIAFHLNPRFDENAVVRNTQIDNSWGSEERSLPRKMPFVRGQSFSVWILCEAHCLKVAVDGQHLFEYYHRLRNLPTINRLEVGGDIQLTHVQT

CC(=O)NC1C(O)OC(COS(=O)(=O)O)C(OC2OC(COS(=O)(=O)O)C(O)C(OC3OC(COS(=O)(=O)O)C(OC4OC(CO)C(O)C(OC5(C(=O)O)CC(O)C(NC(C)=O)C(C(O)C(O)CO)O5)C4O)C(O)C3NC(C)=O)C2O)C1O (stereo not drawn) [SL2L4, NeuAc α2-3 Gal β1-4 GlcNAc6S β1-3 Gal6S β1-4 GlcNAc6S]
binding to the tested galectin molecules (in words) [1]: bound to various galectin molecules | V − V0 Value (Galectin-9N): <5.0 µL | V − V0 Value (Galectin-8C): <5.0 µL | V − V0 Value (Galectin-1): <5.0 µL | V − V0 Value (Galectin-3): 8.2 ± 0.2 µL | binding to galectin-3 (in words) (Galectin-3): showed binding affinity | V − V0 Value (Galectin-8N): 26.5 ± 0.9 µL | binding to galectin-8N (in words) (Galectin-8N): showed binding affinity | V − V0 Value (Galectin-9C): <5.0 µL

Chondroitin
V − V0 Value (Galectin-9N): 171.4 ± 19.0 µL | binding to galectin-9N (in words) (Galectin-9N): bind | binding to galectin-9N (in words) (Galectin-9N; listed as chondroitin): particularly strong binding affinity | V − V0 Value (Galectin-8C): <5.0 µL | V − V0 Value (Galectin-1): <5.0 µL | V − V0 Value (Galectin-3): 19.2 ± 2.2 µL | binding to galectin-3 (in words) (Galectin-3): bind | binding to galectin-3 (in words) (Galectin-3; listed as chondroitin): length-dependent binding affinity | V − V0 Value (Galectin-8N): <5.0 µL | V − V0 Value (Galectin-9C): <5.0 µL

Gal β1-4 GlcNAc6S β1-3 Gal β1-4 GlcNAc6S [L2L2]
binding to the tested galectin molecules (in words) [1]: bound to various galectin molecules | V − V0 Value (Galectin-9N): 8.8 ± 0.3 µL | binding to galectin-9N (in words) (Galectin-9N): showed binding affinity | V − V0 Value (Galectin-8C): <5.0 µL | V − V0 Value (Galectin-1): 6.2 ± 1.7 µL | binding to galectin-1 (in words) (Galectin-1): showed binding affinity | V − V0 Value (Galectin-3): 22.6 ± 1.1 µL | binding to galectin-3 (in words) (Galectin-3): showed binding affinity | V − V0 Value (Galectin-8N): <5.0 µL | V − V0 Value (Galectin-9C): 7.7 ± 0.4 µL | binding to galectin-9C (in words) (Galectin-9C): showed binding affinity

Hyaluronan [HA, reference compound]
binding to the tested galectin molecules (in words) [1]: did not bind | V − V0 Value (Galectin-9N): <5.0 µL | V − V0 Value (Galectin-8C): <5.0 µL | V − V0 Value (Galectin-1): <5.0 µL | V − V0 Value (Galectin-3): <5.0 µL | V − V0 Value (Galectin-8N): <5.0 µL | V − V0 Value (Galectin-9C): <5.0 µL

cartilage type keratan sulfate [KS-II]
V − V0 Value (Galectin-9N): 10.4 ± 0.3 µL | binding to galectin-9N (in words) (Galectin-9N): weaker than their binding with KS-I; also recorded: showed binding affinity | V − V0 Value (Galectin-8C): <5.0 µL | V − V0 Value (Galectin-1): <5.0 µL | V − V0 Value (Galectin-3): 10.1 ± 1.1 µL | binding to galectin-3 (in words) (Galectin-3): weaker than their binding with KS-I; also recorded: showed binding affinity | V − V0 Value (Galectin-8N): <5.0 µL | V − V0 Value (Galectin-9C): 6.4 ± 1.0 µL | binding to galectin-9C (in words) (Galectin-9C): weaker than their binding with KS-I; also recorded: showed binding affinity

cornea type keratan sulfate [KS-I]
V − V0 Value (Galectin-9N): 105.3 ± 22.6 µL | binding to galectin-9N (in words) (Galectin-9N): bound; also recorded: showed binding affinity | V − V0 Value (Galectin-8C): <5.0 µL | V − V0 Value (Galectin-1): 10.3 ± 4.5 µL | binding to galectin-1 (in words) (Galectin-1): bound; also recorded: showed binding affinity | V − V0 Value (Galectin-3): 21.7 ± 4.3 µL | binding to galectin-3 (in words) (Galectin-3): bound; also recorded: showed binding affinity | V − V0 Value (Galectin-8N): <5.0 µL | binding to galectin-8N (in words) (Galectin-8N): showed binding affinity | V − V0 Value (Galectin-9C): 12.2 ± 1.0 µL | binding to galectin-9C (in words) (Galectin-9C): bound; also recorded: showed binding affinity
